Assay results from article PMC10638401, “Mannich-type modifications of (−)-cannabidiol and (−)-cannabigerol leading to new, bioactive derivatives” (Scientific Reports, 2023).
≈ marks a conversion by molar mass, not a printed value.

Experiments:
[1] = test system: SZ95 sebocytes; assay: Nile Red-assay, arachidonic acid-induced lipogenesis; type: cell-based, human; settings: 50 μM arachidonic acid, 48 h
Protocol: Human immortalized SZ95 sebocytes, originated from human facial sebaceous glands[50] were provided by prof. Christos C. Zouboulis, and were cultured in Sebomed® Basal Medium (Cat. No. F8205; Sigma-Aldrich) supplemented with 10% FBS (Gibco-Thermo Fisher Scientific), 1 mM CaCl2 (Cat. No. C7902; Sigma-Aldrich), 5 ng/ml human epidermal growth factor (Cat. No. E9644; Sigma-Aldrich), and MycoZap™ Plus-CL (1:500; Lonza). The medium was changed every other day, and cells were subcultured at 60–70% confluence.
For quantitative measurement of sebaceous (neutral) lipid content, SZ95 sebocytes (20,000 cells/well) were cultured in 96-well “black well/clear bottom” plates (Cat. No. 655090; Greiner Bio-One, Frickenhausen, Germany), and were treated with compounds in the presence or absence of arachidonic acid (AA; Cat. No. 90010; Cayman Chemical Company, Ann Arbor, MI, USA) or its vehicle (absolute ethanol) as indicated. Subsequently, supernatants were discarded, cells were washed twice with phosphate-buffered saline (PBS; 115 mM NaCl, 20 mM Na2HPO4, pH 7.4; all from Sigma-Aldrich), and 100 µl of a 1 µg/ml Nile Red (Cat. No. N3013; Sigma-Aldrich) solution in PBS was added to each well. The plates were then incubated at 37 °C for 30 min, and fluorescence was measured on FlexStation 3 multimode microplate reader (Molecular Devices, San Francisco, CA, USA). Results, measured in relative fluorescence units, are expressed as percentage of the vehicle (absolute ethanol; Cat. No. 20821.296; VWR International)-treated control regarded as 100%, using 485 nm excitation and 565 nm emission wavelengths.

[2] = test system: Enterococcus faecalis 51299 VanB; assay: MIC, broth micro dilution; settings: Enterococcus faecalis, 51299VANB
[3] = test system: SARS-CoV-2; assay: SARS-CoV-2 cytopathic effect (CPE) inhibition assay in Vero E6 cells (XTT); type: cell-based; settings: Severe acute respiratory syndrome coronavirus 2, Vero C1008, 72 h; Vero E6 cells, 3 days post-infection, XTT
[4] = test system: SARS-CoV-2; assay: SARS-CoV-2 immunofluorescence assay (nucleoprotein expression) in Vero E6 cells; type: cell-based; settings: Severe acute respiratory syndrome coronavirus 2, Vero C1008, 72 h, three days
Protocol: CBD and CBG derivatives were further tested for their ability to inhibit SARS-CoV-2 replication in Vero E6 cells. Initially, the inhibition of virus-induced cytopathic effect was measured by addition of twofold serial dilutions of each derivative to the cells, followed by the infection with SARS-CoV-2 and determination of the cell viability 3 days post-infection by XTT assay. Concurrently, the cytotoxicity of each compound was assessed from identical dilutions in uninfected Vero E6 cells. To confirm anti-SARS-CoV-2 activity in the CPE inhibition assay, selected compounds were tested in immunofluorescence assay, where inhibition of SARS-CoV-2 replication was monitored as reduction in nucleoprotein expression using fluorescence microscope. […] Among the CBG derivatives, we can find quite cytotoxic and non-cytotoxic derivatives as well.
For CPE-based assay, two-fold fold serial dilutions of compounds from 100 µM were added in triplicate in a 384-well plate with 5000 Vero E6 cells in DMEM medium with 2% FBS, 100 U of penicillin/ml and 100 µg of streptomycin/ml (all Merck). After 1 h incubation SARS-CoV-2 (strain hCoV-19/Czech Republic/NRL_6632_2/2020) was added at multiplicity of infection […]. Following three days incubation at 37 °C in 5% CO2 the cell viability was determined by addition of XTT solution (Sigma-Aldrich) for 4 h and the absorbance was measured using EnVision plate reader (Perkin Elmer). Drug concentrations required to reduce viral cytopathic effect by 50% (EC50) were calculated using nonlinear regression from plots of percentage cell viability versus log10 drug concentration using GraphPad Prism (version 9.0.0, GraphPad Software, LLC). For immunofluorescence assay, two-fold fold serial dilutions of compounds from 100 µM were added in triplicate in 96-well plate with 15,000 Vero E6 cells plated day before in the same medium as above. After 1 h incubation, SARS-CoV-2 was added at multiplicity of infection 0.05 IU/cell. After three days of incubation, cells were fixed with 4% paraformaldehyde, permeabilized with 0.2% Triton X100 (both Merck), washed, incubated with anti-SARS-CoV-2antibody (mouse monoclonal antibody detecting SARS-CoV-2 nucleoprotein) for 2 h at room temperature. Followed by 1.5 h incubation with Cy3-labeled donkey anti-mouse IgG (Jackson ImmunoResearch Europe) and documented using fluorescence microscope with camera (Olympus). Images were processed in ImageJ software (NIH) and compound concentrations required to reduce fluorescence by 50% (EC50s) were calculated from plots of percentage of fluorescent cells versus log10 drug concentration using nonlinear regression analysis as above. Cytotoxicity was evaluated by incubating with the same two-fold serial dilutions of each compound as above with Vero E6 cells in 384-well plate.

[5] = test system: Pseudomonas aeruginosa; assay: Antibacterial effect, broth micro dilution; type: cell-based
[6] = test system: multidrug-resistant Acinetobacter baumannii; assay: Antibacterial effect, broth micro dilution
Protocol: (§1) According to CLSI guideline the Minimal Inhibitory Concentrations (MICs) of the prepared compounds were determined with the broth micro dilution method. After an overnight growth on 5% bovine blood agar plates at 35 °C bacterial strains were suspended in physiological saline in order to reach the density of 0.5 McFarland for inoculation. Stock solutions containing different concentrations of the substances were prepared in DMSO and H2O (1:1). These were twofold serially diluted from 256 to 0.5 mg/l in Mueller–Hinton broth, and 100 ml of each dilution was inoculated with 10 ml of each bacterial suspension.

[7] = test system: Escherichia coli; assay: Antibacterial effect, broth micro dilution; type: cell-based
[8] = test system: Klebsiella pneumoniae carbapenemase-producing bacteria; assay: Antibacterial effect, broth micro dilution
Protocol: as §1

SMILES | effect on the lipogenic effect of arachidonic acid (AA) [1] | MIC [2] | EC50 [3] | EC50 [4] | antibacterial effect (no effect up to) [5] | antibacterial effect (no effect up to) [6] | antibacterial effect (no effect up to) [7] | antibacterial effect (no effect up to) [8]
C=C(C)[C@@H]1CCC(C)=C[C@H]1c1c(O)cc(CCCCC)cc1O [Compound 1, (−)-Cannabidiol] | completely prevent the lipogenic effect | 4 µg/mL (≈ 12.7 µM) | 5.1 ± 0.99 µM | 8.3 ± 0.28 µM | > 256 µg/mL | > 256 µg/mL | > 256 µg/mL | > 256 µg/mL
C=C(C)[C@@H]1CCC(C)=C[C@H]1c1c(O)cc(CCCCC)c(COCC)c1O [Compound 9] | mimic this lipostatic effect | 8 µg/mL (≈ 21.5 µM) | 22 ± 3 µM | ~94 µM |  |  |  | 
